Data published in ChEMBL document CHEMBL1201862, “PubChem BioAssay data set” (2004).
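Step 1: Grow cells in 96-well plates. Step 2: Expose to compound for 48 hours at 5 concentrations. Step 3: Interpolate endpoints linearly; if unreached, use highest concentration. GI50 marks 50% less growth.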 Activity calls are given as the source filed them. Cut-off read from the data, not from the text of the source: active = GI50 up to about 1.1 µM and inactive = higher.

How the values were obtained:
Assay in all cases: growth of human tumour cells (NCI), 48 h
LXFL 529 = system: LXFL 529
SW-620 = system: SW-620
BT-549 = system: BT-549
A498 = system: A498
OVCAR-8 = system: OVCAR-8
NCI-H23 = system: NCI-H23
HOP-62 = system: HOP-62
HCT-116 = system: HCT-116
T47D = system: T47D
RPMI-8226 = system: RPMI-8226
NCI-H226 = system: NCI-H226
ACHN = system: ACHN
EKVX = system: EKVX
U-251 = system: U-251
NCI-H522 = system: NCI-H522
MDA-MB-231 = system: MDA-MB-231
MDA-MB-435 = system: MDA-MB-435
K562 = system: K562
SK-OV-3 = system: SK-OV-3
SK-MEL-28 = system: SK-MEL-28

Cc1ccc2ccc3ccc(C)nc3c2n1 [NEOCUPROINE]
GI50 (LXFL 529): 0.679 µM (active)
GI50 (SW-620): 51.5 µM (inactive)
GI50 (BT-549): > 100 µM (inactive)
GI50 (A498): > 40.1 µM (inactive)
GI50 (OVCAR-8): > 26.9 µM (inactive)
GI50 (NCI-H23): 0.439 µM (active)
GI50 (HOP-62): 4.68 µM (inactive)
GI50 (HCT-116): 0.349 µM (active)
GI50 (T47D): 1.06 µM (active)
GI50 (RPMI-8226): > 100 µM (inactive)
GI50 (NCI-H226): 33.4 µM (inactive)
GI50 (ACHN): > 100 µM (inactive)
GI50 (EKVX): > 100 µM (inactive)
GI50 (U-251): 7.31 µM (inactive)
GI50 (NCI-H522): 74.3 µM (inactive)
GI50 (MDA-MB-231): 5.62 µM (inactive)
GI50 (MDA-MB-435): > 100 µM (inactive)
GI50 (K562): 0.542 µM (active)
GI50 (SK-OV-3): > 100 µM (inactive)
GI50 (SK-MEL-28): > 100 µM (inactive)

CCOC(=O)c1c(-c2ccccc2)oc(-c2ccccc2)c1C(=O)OCC
GI50 (LXFL 529): 34.6 µM (inactive)
GI50 (SW-620): > 100 µM (inactive)
GI50 (A498): 60.7 µM (inactive)
GI50 (OVCAR-8): > 100 µM (inactive)
GI50 (NCI-H23): 89.3 µM (inactive)
GI50 (HOP-62): > 100 µM (inactive)
GI50 (HCT-116): > 100 µM (inactive)
GI50 (RPMI-8226): 50 µM (inactive)
GI50 (NCI-H226): > 100 µM (inactive)
GI50 (ACHN): > 100 µM (inactive)
GI50 (EKVX): > 100 µM (inactive)
GI50 (U-251): > 100 µM (inactive)
GI50 (NCI-H522): > 100 µM (inactive)
GI50 (K562): 67.3 µM (inactive)
GI50 (SK-OV-3): > 100 µM (inactive)
GI50 (SK-MEL-28): > 100 µM (inactive)

COC(=N)c1csc(C2OC(CO)C(O)C2O)n1 (configuration not stated)
GI50 (LXFL 529): > 100 µM (inactive)
GI50 (SW-620): > 100 µM (inactive)
GI50 (A498): > 100 µM (inactive)
GI50 (OVCAR-8): > 100 µM (inactive)
GI50 (NCI-H23): > 100 µM (inactive)
GI50 (HOP-62): > 100 µM (inactive)
GI50 (HCT-116): > 100 µM (inactive)
GI50 (RPMI-8226): > 100 µM (inactive)
GI50 (NCI-H226): > 100 µM (inactive)
GI50 (ACHN): > 100 µM (inactive)
GI50 (EKVX): > 100 µM (inactive)
GI50 (U-251): > 100 µM (inactive)
GI50 (NCI-H522): > 100 µM (inactive)
GI50 (K562): > 100 µM (inactive)
GI50 (SK-OV-3): > 100 µM (inactive)
GI50 (SK-MEL-28): > 100 µM (inactive)

Cc1ccccc1/N=C/c1ccc(N(CCC#N)S(=O)(=O)c2ccccc2)cc1
GI50 (LXFL 529): > 100 µM (inactive)
GI50 (SW-620): > 100 µM (inactive)
GI50 (A498): > 100 µM (inactive)
GI50 (OVCAR-8): > 100 µM (inactive)
GI50 (NCI-H23): > 100 µM (inactive)
GI50 (HOP-62): > 100 µM (inactive)
GI50 (HCT-116): > 100 µM (inactive)
GI50 (RPMI-8226): > 100 µM (inactive)
GI50 (NCI-H226): > 100 µM (inactive)
GI50 (ACHN): > 100 µM (inactive)
GI50 (EKVX): > 100 µM (inactive)
GI50 (U-251): > 100 µM (inactive)
GI50 (NCI-H522): 70.1 µM (inactive)
GI50 (K562): > 100 µM (inactive)
GI50 (SK-OV-3): > 100 µM (inactive)
GI50 (SK-MEL-28): > 100 µM (inactive)

CC(=O)Nc1ccc(C(=O)NN2C(=O)C(Cl)C2c2cc(Br)ccc2O)cc1 (configuration not stated)
GI50 (LXFL 529): 14.4 µM (inactive)
GI50 (SW-620): 6.21 µM (inactive)
GI50 (BT-549): 14.8 µM (inactive)
GI50 (OVCAR-8): 6.52 µM (inactive)
GI50 (NCI-H23): 5.75 µM (inactive)
GI50 (HOP-62): 2.2 µM (inactive)
GI50 (HCT-116): 3.69 µM (inactive)
GI50 (T47D): 4.16 µM (inactive)
GI50 (RPMI-8226): 12.1 µM (inactive)
GI50 (NCI-H226): 7.36 µM (inactive)
GI50 (ACHN): 2.99 µM (inactive)
GI50 (EKVX): 28.8 µM (inactive)
GI50 (U-251): 2.59 µM (inactive)
GI50 (NCI-H522): 6.55 µM (inactive)
GI50 (MDA-MB-231): 3.6 µM (inactive)
GI50 (MDA-MB-435): 7.69 µM (inactive)
GI50 (K562): 6.41 µM (inactive)
GI50 (SK-OV-3): 4.42 µM (inactive)
GI50 (SK-MEL-28): 4.38 µM (inactive)
